For series [1], the system named is Mucolipidosis Type II (MLII) patient fibroblasts. Nature of the series: Lysosomal volume via LysoTracker. Type of series: cell-based, human. As to conditions: 1 mM, 6 days, vs untreated.
Series [2] relates to Niemann-Pick A (NPA) patient fibroblasts. Put plainly: Lysosomal volume via LysoTracker. Type of series: cell-based, human. As to conditions: 1 mM, 6 days, vs untreated.
In series [3] the test system is patient with Lewy Body dementia. Nature of the series: Case study, clinical evaluation. The series is classed as in vivo, human. As to conditions: Ex. 17, Lewy Body dementia; 3 g/day one week, 5 g/day thereafter; after four weeks. As for the experimental part: The patient started taking acetyl-leucine (3 g/day for one week; 5 g/day thereafter) and was evaluated after four weeks. […] Medication was reduced to 3 g/day, and the patient was instructed to stop medication about two weeks later.

Series [4] deals with patient with downbeat nystagmus. Put plainly: Gait analysis. As to conditions: Ex. 12 Patient 2. The series is classed as in vivo, human. An excerpt:
Medication was then suspended. About one month after stopping acetyl-DL-leucine treatment, the patient's symptomatology worsened.

Series [5] deals with patient with Spinocerebellar Ataxia (SCA) 1. Put plainly: Case study, clinical examination. The series is classed as in vivo, human. As to conditions: Ex. 16, SCA 1. An excerpt: Three months later the medication was stopped.
Series [6] has as its system Mucopolysaccharidosis Type IIIB (MPS IIIB) patient fibroblasts. Put plainly: Lysosomal volume via LysoTracker. The series is classed as cell-based, human. As to conditions: 1 mM, 6 days, vs untreated.
Series [7] deals with patient with oligosymptomatic MSA-C. Put plainly: Gait analysis. As to conditions: Ex. 8 Patient 3, MSA-C; 3 then 5 gram per day; after one month. Type of series: in vivo, human. As for the experimental part:
After one month of treatment, a further examination was carried out.
Treatment was again suspended and the patient was evaluated three weeks later.

Series [8] relates to 12 patients with Niemann-Pick Type C (NPC). As to conditions: one-month study, 12 NPC patients (Bremova et al. 2015); cited from earlier work.
In series [9] the test system is Hexb^−/− mouse (Sandhoff disease model). Nature of the series: Step cycle. The series is classed as in vivo. As to conditions: Sandhoff mice, 0.1 g/kg from 3 weeks, 12 weeks of age. As for the experimental part:
This study made use of a mouse model of Sandhoff disease, the Hexb^−/− mouse, as described in Jeyakumar et al. (Jeyakumar, M. et al. (1999) Proc. Natl. Acad. Sci. USA 96: 6388-6393). Step cycle is the length of time taken during locomotion by a limb from the time it leaves the ground until it leaves the ground on the next occasion. Step cycle time was assessed at 12 weeks of age in untreated and acetyl-leucine treated Sandhoff model mice. Acetyl-leucine treatment constituted 0.1 g/kg body weight acetyl-leucine from 3 weeks of age.

A further series deals with Npc1^−/− mice. Put plainly: Gait analysis (CatWalk). As to conditions: 0.1 g/kg from weaning, eight weeks of age, vs untreated littermates. The series is classed as in vivo, mouse. As for the experimental part: Separate groups of Npc1^−/− and Npc1^+/+ mice were left untreated, as controls. Gait analysis was performed on mice at eight weeks of age using a CatWalk® 15.0 system according to manufacturer's instructions (Noldus, Nottingham, UK). Five runs were recorded per animal. CatWalk® parameters measured were: • 1. Stand Mean: average duration (s) of paws in contact with glass plate; • 2. Step Cycle: duration (s) between two consecutive contacts of the same paw; • 3. Duty Cycle: percentage of time paws in contact with plate compared with time to complete a step cycle; • 4. Step Sequence (AB): percentage of time spent walking in LF-RH-RF-LH alternating pattern (LF: left front; RH: right hind; RF: right front; LH left hind); • 5. Cadence: step per seconds in a trial; • 6. Diagonal Support: percentage of time with simultaneous contact of diagonal paws with the glass plate (RF&LH or RH&LF). Motor Function Analysis

Series [10] deals with patients with downbeat nystagmus. Nature of the series: Case studies, clinical examination (visual acuity, posturography). Type of series: in vivo, human. The text has this:
The patient was diagnosed with downbeat nystagmus: the patient was severely impaired by blurred vision (oscillopsia) due to the nystagmus, and experienced difficulties while reading and writing. The patient's visual acuity was: right 0.75, left 0.67, binocular 0.83, and the downbeat nystagmus was documented by video-oculography. […] […] […] The patient was able to suppress the nystagmus by visual fixation. In addition, the patient's spatial orientation was improved.

A further series deals with patients with vertigo. As to conditions: used in France to treat acute vertigo since 1957; long-term safety not determined; cited from earlier work.
Series [11] has as its system patient with GM1 Gangliosidosis. Put plainly: Case study, patient evaluation (SARA, mRDS, EQ-5D-5L). Type of series: in vivo, human. As to conditions: Ex. 6, GM1 Gangliosidosis; 1.5 then 3 g per day; after one month. An excerpt: Before treatment was commenced, examination of the patient indicated a Scale for Assessment and Rating of Ataxia (SARA) score of 35/40, a mRDS score of 15, and a EQ-5D-5L visual scale of 50. The patient was started on therapy with acetyl-leucine at a dose of 1.5 g per day for the first week, followed by a dose of 3 g per day for the second week onwards.

The test system of the next series is Npc1^−/− mouse. Nature of the series: Lifespan. Type of series: in vivo. As to conditions: 0.1 g/kg from 3 weeks of age. An excerpt:
Separate groups of Npc1^−/− and Npc1^+/+ mice were left untreated, as controls.

The test system of series [12] is fibroblast cell line from an NPC patient. Put plainly: Lysosomal volume via LysoTracker. Type of series: cell-based, human. As to conditions: fibroblasts from NPC patient of mild clinical severity; 1 mM. As for the experimental part: A fibroblast cell line from an NPC patient was treated for 3 days with N-acetyl-DL-leucine (1 mM) and relative lysosomal volume was quantified via LysoTracker, a fluorescent dye that accumulates in acidic organelles. Increased LysoTracker fluorescence is indicative of an increase in lysosomal size and/or number, and is a hallmark of NPC cells.

Setting [13] is: Ex. 12 Patient 1, approximately 14 weeks after starting.

Structures are written as SMILES.

In the case of `CC(=O)NC(CC(C)C)C(=O)O` (racemic) [acetyl-DL-leucine], the “LysoTracker fluorescence (lysosomal volume)” value in series [1] is recorded as “statistically significant reduction in LysoTracker fluorescence”; in [2], “statistically significant reduction in LysoTracker fluorescence”; in [6], “statistically significant reduction in LysoTracker fluorescence”; in series [12], “significant decrease in LysoTracker fluorescence”. Moreover, the patient-reported symptoms result in [3] is “increased fatigue and a deterioration of balance and speech”. Further, the self-chosen velocity in series [4] (about one month after stopping treatment, decrease from 85) is 72 cm/s; in [4] (on treatment, increase from 56), 85 cm/s. In addition, the symptoms result is reported as “all symptoms significantly improved” in series [5] (5 g/day, three weeks on medication) and “improvement of gait” in series [10] (Ex. 12 Patient 2, downbeat nystagmus, 3 g/day first week, 5 g/day thereafter). For the same compound, the side-effects entry is given as “without any side-effects” in [5] (over two years on the same dosage) and “no side-effects resulted” in series [10] (Ex. 12 Patient 1, continued treatment at 5 gram per day). In series [5] (two weeks after the medication was stopped), the “signs and symptoms after stopping” value was “the intensity of the signs and symptoms were the same as before therapy”. Besides, the “gait analysis, summary” value in series [7] is “improvement of gait speed, and reductions of track width and gait fluctuations”. The ataxia symptoms result in [8] is “symptomatic improvement of ataxia”. Moreover, the “average step cycle time” value in series [9] (p<0.001 vs untreated) is reported as “significantly faster average step cycle times”. Moreover, the “hind step cycle time” value in [9] (p<0.01 vs untreated) is given as “significantly faster hind step cycle times”. In series [9] (p<0.05 vs untreated), the “front step cycle time” value is reported as “significantly faster front step cycle times”. The gait properties entry in the series on Npc1^−/− mice is “significantly improved gait”. Moreover, the patient-reported benefit entry in series [10] (Ex. 12 Patient 1, downbeat nystagmus, 3 then 5 gram per day, after 10 days) was “significant benefit”. In addition, the “nystagmus, clinical examination by two independent examiners” value in [10] (setting [13]) was “reduction of the nystagmus”. Also, in series [10] (setting [13]), the posturography result was “reduction of postural sway”. Besides, the safety profile entry in the series on patients with vertigo is on record as “excellent safety profile”. In addition, the symptoms on re-examination entry in [11] was “stable general condition, increased gait (more fluent), and stable stance in natural position”. In addition, the lifespan entry with Npc1^−/− mouse was “small but statistically significant increase in lifespan”.

These data come from patent publication US12144792B2, “Therapeutic agents for neurodegenerative diseases” (priority 2016, dated 2024).
